Legend:
Type in all cases: cell-based
[1] = target: T1, homomeric KV7.4 channel (KCNQ4) (Homo sapiens, UniProt P56696); experiment: Automated patch-clamp (Qube) counter-screening assay against KV7.4 channel; conditions: CHO-K1 cells expressing KV7.4; class by maximal shift in the Vhalf at 30 μM
T1 construct: host or cells: CHO-K1
Procedure, shortened: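 CHO-K1 cells stably expressing homomeric human KV7.4 were recorded on the Qube automated patch clamp. Ten concentrations (1:3 dilutions from 30 μM) were tested in quadruplicate. The mean Vhalf shift was fitted with a 4-parameter logistic to give EC50 and maximal Vhalf shift, and selectivity was based on the shift at 30 μM.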

[2] = target: T2, heteromeric KV7.3/KV7.5 channel (KCNQ3, KCNQ5) (Homo sapiens, UniProt O43525+Q9NR82); experiment: Automated patch-clamp counter-screening against KV7.3/KV7.5 channel; conditions: HEK293 cells expressing Kv7.3/KV7.5; class by maximal shift in the Vhalf at 30 μM
T2 construct: host or cells: HEK293
Procedure, shortened: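 HEK293 cells with constitutive Kv7.3 and tetracycline-inducible Kv7.5 were recorded by automated patch clamp. Ten concentrations (1:3 series from 30 μM, quadruplicate) were tested; Vhalf shifts were fitted with a 4-parameter logistic to give EC50 and maximal Vhalf shift, with selectivity based on the shift at 30 μM.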

[3] = target: T3, heteromeric KV7.2/KV7.3 channels (KCNQ2, KCNQ3) (Homo sapiens, UniProt O43525+O43526); experiment: Automated patch-clamp (Sophion Qube 384) potency assay against KV7.2/KV7.3 channels; conditions: CHO-K1/Kv7.2/Kv7.3 cells; for EC50: EC50 from concentration-response of shift in Vhalf, 10 concentrations up to 30 μM, read-out: Kv7.2/7.3 EC50; for Kv7.2/7.3 ΔV1/2: maximal shift in the Vhalf from the top of the curve
T3 construct: expressed in transfected cells; host or cells: CHO-K1
Procedure, shortened: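 Whole-cell automated patch clamp on CHO-K1 cells stably expressing human KV7.2/KV7.3, held at −80 mV; I-V steps −100 to +20 mV (1 s) with 0 mV tail pulses, Boltzmann-fitted activation curves. Ten concentrations (1:3 from 30 μM, quadruplicate) versus 0.3% DMSO control; EC50 and maximal shift from 4-parameter fits of Vhalf shift.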

Row | EC50 [3] [nM] | Kv7.2/7.3 ΔV1/2 [3] [mV] | Compound | Kv7.4 selectivity criteria [1] | Kv7.3/7.5 selectivity criteria [2]
1 | 1800 | 14.76 | O=C(NCCC1(C(F)(F)F)CC1)NC1CCCc2cnc(OCC(F)(F)F)cc21 (stereo not shown) [Compound 21, 1-(3-(2,2,2-Trifluoroethoxy)-5,6,7,8-tetrahydroisoquinolin-5-yl)-3-(2-(1-(trifluoromethyl)cyclopropyl)ethyl)urea] | B (Non-selective compounds showed Kv7.4 and/or Kv7.3/7.5 ΔV1/2 higher than 15 mV (letter B in table 3)) | B (Non-selective compounds showed Kv7.4 and/or Kv7.3/7.5 ΔV1/2 higher than 15 mV (letter B in table 3))
2 | 657 | 16.4 | O=C(NCc1ccnc(OCC(F)(F)F)c1)N[C@H]1CCCOc2ccccc21 [Compound 142] | A (Selective compounds showed Kv7.4 and/or Kv7.3/7.5 ΔV1/2 equal to or lower than 15 mV (letter A in table 3)) | A (Selective compounds showed Kv7.4 and/or Kv7.3/7.5 ΔV1/2 equal to or lower than 15 mV (letter A in table 3))
3 | 4170 | 13.23 | O=C(NCc1ccnc(C(F)(F)F)c1)N[C@H]1CCc2ccc(F)cc21 [Compound 94] | A (Selective compounds showed Kv7.4 and/or Kv7.3/7.5 ΔV1/2 equal to or lower than 15 mV (letter A in table 3)) | A (Selective compounds showed Kv7.4 and/or Kv7.3/7.5 ΔV1/2 equal to or lower than 15 mV (letter A in table 3))
4 | 3950 | 16.77 | O=C(NCc1ccnc(C(F)(F)F)c1)N[C@@H]1CCc2ccc(F)cc21 [Compound 92] | A (Selective compounds showed Kv7.4 and/or Kv7.3/7.5 ΔV1/2 equal to or lower than 15 mV (letter A in table 3)) | A (Selective compounds showed Kv7.4 and/or Kv7.3/7.5 ΔV1/2 equal to or lower than 15 mV (letter A in table 3))
5 | 392 | 26.52 | O=C(NCCC1(C(F)(F)F)CC1)NCc1ccnc(OCc2ccc(F)cc2)c1 [Compound 14, 1-((2-((4-Fluorobenzyl)oxy)pyridin-4-yl)methyl)-3-(2-(1-(trifluoromethyl)cyclopropyl)ethyl)urea] | B (Non-selective compounds showed Kv7.4 and/or Kv7.3/7.5 ΔV1/2 higher than 15 mV (letter B in table 3)) | A (Selective compounds showed Kv7.4 and/or Kv7.3/7.5 ΔV1/2 equal to or lower than 15 mV (letter A in table 3))
6 | 1820 | 15.43 | COCC1(NC(=O)NCc2ccnc(OCC(F)(F)F)c2)Cc2ccccc2C1 [Compound 148] | A (Selective compounds showed Kv7.4 and/or Kv7.3/7.5 ΔV1/2 equal to or lower than 15 mV (letter A in table 3)) | A (Selective compounds showed Kv7.4 and/or Kv7.3/7.5 ΔV1/2 equal to or lower than 15 mV (letter A in table 3))
7 | 4730 | 27.19 | CN(CC(F)(F)F)c1cc(CNC(=O)NCCC2(C(F)(F)F)CC2)ccn1 [Compound 68, 1-((2-(Methyl(2,2,2-trifluoroethyl)amino)pyridin-4-yl)methyl)-3-(2-(1-(trifluoromethyl)cyclopropyl)ethyl)urea] | A (Selective compounds showed Kv7.4 and/or Kv7.3/7.5 ΔV1/2 equal to or lower than 15 mV (letter A in table 3)) | A (Selective compounds showed Kv7.4 and/or Kv7.3/7.5 ΔV1/2 equal to or lower than 15 mV (letter A in table 3))
8 | 206 | 20.49 | O=C(NCc1ccnc(OCC(F)(F)F)c1)NCc1cc(F)ccc1Cl [Compound 85, 1-(2-Chloro-5-fluorobenzyl)-3-((2-(2,2,2-trifluoroethoxy)pyridin-4-yl)methyl)urea] | A (Selective compounds showed Kv7.4 and/or Kv7.3/7.5 ΔV1/2 equal to or lower than 15 mV (letter A in table 3)) | A (Selective compounds showed Kv7.4 and/or Kv7.3/7.5 ΔV1/2 equal to or lower than 15 mV (letter A in table 3))
9 | 400 | 25.77 | O=C(NCCC1(C(F)(F)F)CC1)NCc1ccnc(OCc2ccc(F)cc2F)c1 [Compound 25, 1-((2-((2,4-Difluorobenzyl)oxy)pyridin-4-yl)methyl)-3-(2-(1-(trifluoromethyl)cyclopropyl)ethyl)urea] | A (Selective compounds showed Kv7.4 and/or Kv7.3/7.5 ΔV1/2 equal to or lower than 15 mV (letter A in table 3)) | A (Selective compounds showed Kv7.4 and/or Kv7.3/7.5 ΔV1/2 equal to or lower than 15 mV (letter A in table 3))
10 | 1610 | 40.52 | O=C(NCc1ccnc(OCC(F)(F)F)c1)N[C@@H]1CCOc2ccccc21 [Compound 130] | B (Non-selective compounds showed Kv7.4 and/or Kv7.3/7.5 ΔV1/2 higher than 15 mV (letter B in table 3)) | B (Non-selective compounds showed Kv7.4 and/or Kv7.3/7.5 ΔV1/2 higher than 15 mV (letter B in table 3))
11 | 2240 | 34.89 | CC1CC(NC(=O)NCc2ccnc(OCC(F)(F)F)c2)c2ccccc21 (stereo not shown) [Compound 139] | A (Selective compounds showed Kv7.4 and/or Kv7.3/7.5 ΔV1/2 equal to or lower than 15 mV (letter A in table 3)) | A (Selective compounds showed Kv7.4 and/or Kv7.3/7.5 ΔV1/2 equal to or lower than 15 mV (letter A in table 3))
12 | 3180 | 26.46 | O=C(NCC1CCC(F)(F)CC1)N[C@@H](CO)c1ccnc(OCC(F)(F)F)c1 [Compound 108] | A (Selective compounds showed Kv7.4 and/or Kv7.3/7.5 ΔV1/2 equal to or lower than 15 mV (letter A in table 3)) | A (Selective compounds showed Kv7.4 and/or Kv7.3/7.5 ΔV1/2 equal to or lower than 15 mV (letter A in table 3))
13 | 649 | 38.22 | O=C(NCc1ccnc(OCC(F)(F)F)c1)NCC1(C(F)(F)F)CC1 [Compound 35, 1-((2-(2,2,2-Trifluoroethoxy)pyridin-4-yl)methyl)-3-((1-(trifluoromethyl)cyclopropyl)methyl)urea] | B (Non-selective compounds showed Kv7.4 and/or Kv7.3/7.5 ΔV1/2 higher than 15 mV (letter B in table 3)) | B (Non-selective compounds showed Kv7.4 and/or Kv7.3/7.5 ΔV1/2 higher than 15 mV (letter B in table 3))
14 | 1590 | 31.15 | Cc1cccc2c1C(NC(=O)NCc1ccnc(OCC(F)(F)F)c1)CC2 (stereo not shown) [Compound 116] | A (Selective compounds showed Kv7.4 and/or Kv7.3/7.5 ΔV1/2 equal to or lower than 15 mV (letter A in table 3)) | B (Non-selective compounds showed Kv7.4 and/or Kv7.3/7.5 ΔV1/2 higher than 15 mV (letter B in table 3))
15 | 2020 | 25.72 | O=C(NCCC1(C(F)(F)F)CC1)NCc1ccnc(OCC2CC(F)(F)C2)c1 [Compound 15, 1-((2-((3,3-Difluorocyclobutyl)methoxy)pyridin-4-yl)methyl)-3-(2-(1-(trifluoromethyl)cyclopropyl)ethyl)urea] | A (Selective compounds showed Kv7.4 and/or Kv7.3/7.5 ΔV1/2 equal to or lower than 15 mV (letter A in table 3)) | A (Selective compounds showed Kv7.4 and/or Kv7.3/7.5 ΔV1/2 equal to or lower than 15 mV (letter A in table 3))
16 | 1890 | 15.93 | O=C(NCc1ccnc(OCC(F)(F)F)c1)NC1COc2ccc(F)cc21 (stereo not shown) [Compound 147] | A (Selective compounds showed Kv7.4 and/or Kv7.3/7.5 ΔV1/2 equal to or lower than 15 mV (letter A in table 3)) | A (Selective compounds showed Kv7.4 and/or Kv7.3/7.5 ΔV1/2 equal to or lower than 15 mV (letter A in table 3))
17 | 3100 | 25.85 | O=C(NCc1ccnc(OCC(F)(F)F)c1)Nc1cccc2c1OCCC2 [Compound 140] | A (Selective compounds showed Kv7.4 and/or Kv7.3/7.5 ΔV1/2 equal to or lower than 15 mV (letter A in table 3)) | A (Selective compounds showed Kv7.4 and/or Kv7.3/7.5 ΔV1/2 equal to or lower than 15 mV (letter A in table 3))
18 | 1500 | 35.29 | C[C@H](NC(=O)NC[C@H](O)C(C)(C)C)c1ccnc(OCC(F)(F)C(F)(F)F)c1 [Compound 105] | B (Non-selective compounds showed Kv7.4 and/or Kv7.3/7.5 ΔV1/2 higher than 15 mV (letter B in table 3)) | A (Selective compounds showed Kv7.4 and/or Kv7.3/7.5 ΔV1/2 equal to or lower than 15 mV (letter A in table 3))
19 | 1900 | 20.5 | O=C(NCc1ccnc(OCC(F)(F)F)c1)NC1CCc2ccc(C(F)(F)F)cc21 (stereo not shown) [Compound 117] | A (Selective compounds showed Kv7.4 and/or Kv7.3/7.5 ΔV1/2 equal to or lower than 15 mV (letter A in table 3)) | A (Selective compounds showed Kv7.4 and/or Kv7.3/7.5 ΔV1/2 equal to or lower than 15 mV (letter A in table 3))
